The results in this text go back to patent publication US20010056068A1, “METHOD OF TREATMENT AND PREVENTION OF NITRIC OXIDE DEFICIENCY-RELATED DISORDERS WITH CITRULLINE AND CITRULLINE DERIVATIVES” (priority 1998, published 2001).

The test system of data set [1] is normal and L-NAME-treated female rats. Nature of the data set: Observation of side-effects of citrulline administration in the rat experiments. The data set is classed as in vivo. The settings on record: oral 70 or 140 mg/rat, any experiment. The procedure:
(§1) FIG. 1: The effect of a single administration of citrulline on the systolic blood pressure in normal and L-NAME-treated female rats. Intact female rats chronically instrumented with telemetric transducers allowing continuous monitoring of blood pressure were subcutaneusly implanted with osmotic mini-pumps releasing 50 mg/day L-NAME or 0.9% saline (controls). 24 hours after the pump insertion, the animals received 70 mg/rat citrulline orally per gavage. The systolic blood pressure was monitored for an additional 24 hours following citrulline treatment. N=5/group.
(§2) FIG. 2: The effect of multiple administration of citrulline on the systolic blood pressure in normal and L-NAME-treated female rats. Intact female rats chronically instrumented with telemetric transducers allowing continuous monitoring of blood pressure were subcutaneously implanted with osmotic mini-pumps releasing 50 mg/day L-NAME or vehicle (controls). 24 and 48 hours after the pump insertion, the animals received 70 and 140 mg/rat citrulline orally per gavage. The systolic blood pressure was monitored for an additional 24 hours following the second citrulline treatment. N=5/group
FIG. 3: The effect of a single administration of citrulline on the heart rate in normal and L-NAME-treated female rats. […] The heart rate was monitored for an additional 24 hours following citrulline treatment. […]

The test system is the same in data set [2]. Nature of the data set: Heart rate by telemetry after oral citrulline in normal and L-NAME-treated female rats. It is filed as in vivo, rat. The method, then:
FIG. 3: The effect of a single administration of citrulline on the heart rate in normal and L-NAME-treated female rats. Intact female rats chronically instrumented with telemetric transducers allowing continuous monitoring of heart rate were subcutaneously implanted with osmotic mini-pumps releasing 50 mg/day L-NAME or 0.9% saline (controls). 24 hours after the pump insertion, the animals received 70 mg/rat citrulline orally per gavage. The heart rate was monitored for an additional 24 hours following citrulline treatment. N=5/group
At this time there was also a pronounced increase in heart rate in the L-NAME-treated rats (to 400-450 times/minute). Following a single oral citrulline (70 mg) administration, there was a rapid and very pronounced (p<0.05) decrease in heart rate to approximately 100 times/minute reaching a plateau already 1 hour after treatment. […] The effects of citrulline sustained for 24 hours in both treatment and control groups of citrulline treatment.

The test system is the same in data set [3]. Nature of the data set: Systolic blood pressure by telemetry after oral citrulline in normal and L-NAME-treated female rats. The settings on record: for decrease in blood pressure: 70 mg/rat at 24 h and 140 mg/rat at 48 h after pump insertion. The data set is classed as in vivo, rat. The method, then: as §1, §2
However, the systolic BP started to raise 4 hours after citrulline treatment.
In the experiment which results are presented in FIG. 2, the animals were treated twice with citrulline, i.e. 24 hours (70 mg/rat) and 48 after the start of L-NAME infusion. Similarly to FIG. 1, the first administration of citrulline was performed when the animals became hypertensive following L-NAME infusion.

Setting [4] is: control female rats infused with vehicle, single oral 70 mg citrulline.
Where [5] appears, read: female rats, 50 mg/day L-NAME by subcutaneous osmotic mini-pump, before citrulline.

Turning to `NC(=O)NCCC[C@H](N)C(=O)O` [citrulline], the “side-effects of citrulline administration” value in data set [1] is listed as “No side-effects”. The “time to plateau of heart rate decrease after treatment” value in data set [2] (L-NAME-treated female rats, single oral 70 mg citrulline) came to 1 h. Further, the “heart rate after treatment” value in data set [2] (L-NAME-treated female rats, single oral 70 mg citrulline 24 h after start of L-NAME infusion, p<0.05) was “approximately 100 times/minute”. Also, the “duration of the effects on heart rate” value in data set [2] (both treatment (L-NAME) and control groups, single oral 70 mg citrulline) came to 24 h. The “change in heart rate” value in data set [2] (setting [4]) was “reduced heart rate”. In addition, the “effect of second dose of 140 mg on blood pressure compared with first dose of 70 mg” value in data set [3] (L-NAME- and vehicle-treated female rats, multiple oral administration) is recorded as “slightly more effective”. Besides, in data set [3] (L-NAME-treated (50 mg/day, osmotic mini-pump) female rats, single oral 70 mg citrulline 24 h after start of L-NAME infusion, N=5/group), the “change in systolic blood pressure” value is “rapid and significant (p<0.05) decrease in systolic blood pressure”. Further, the “decrease in blood pressure” value in data set [3] (L-NAME-treated female rats, multiple oral administration) was 30-40%. In addition, in data set [3] (setting [4]), the “change in blood pressure” value is listed as “reduced blood pressure” and the “time after treatment at which systolic BP started to rise” value came out at 4 h. In addition, in data set [3] (female rats, citrulline administered orally, overall conclusion), the “hypertension and increase in heart rate induced by NOS inhibition with L-NAME” value was “partially attenuated”. Besides, in data set [3] (vehicle-treated female rats, multiple oral administration), the “decrease in blood pressure” value was 30-40%.
Take `COC(=O)[C@@H](N)CCCNC(=N)N[N+](=O)[O-]` [L-NAME, N^G-nitro-L-arginine methyl ester, reference compound]: the “heart rate 24 hours after start of L-NAME infusion” value in data set [2] (setting [5]) is recorded as 400-450 times/minute. Also, in data set [3] (setting [5]), the “blood pressure effect 24 hours after start of L-NAME infusion” value was “substantial hypertension”.
